# Measured values as given in patent US20260240976A1, “T[…] VACCINES BASED ON VALIDATED TARGET EPITOPES” (Deutsches Krebsforschungszentrum Stiftung des öffentlichen …, priority 2023, published 2026).
# Tested on: peptide-specific T cell cultures
# Assay: T cell phenotyping and intracellular cytokine staining (IFN-gamma, TNF-alpha)
# Type: cell-based, human
# Set-up: key: +: cytokine: Immunogenicity of the peptide shown by intracellular cytokine staining (IFN-gamma, TNF-alpha); +*: *highlights data from published resources.; *highlights data from published resources
# Conditions: HLA restriction A02
# Experimental: To characterize and quantify the responsive cells upon peptide stimulation, the peptide-specific T cell cultures with positive ELISpot results were further analyzed with T cell phenotyping and intracellular cytokine staining (ICS) assessed by flow cytometry.
# The cells of the respective continued short-term T cell culture as well as the DMSO-stimulated and an unresponsive T cell line were harvested into 2 mL reaction tubes and centrifuged at 400×g for 10 min. The supernatant was discarded and the pellet of the unresponsive T cell line was resuspended in 100 μL ELISpot medium and used as unstimulated and unstained control. The pellets of the responsive and the DMSO-stimulated T cell lines were resuspended in 200 μL ELISpot medium and split equally into two wells of a V-bottom 96-well plate. One well of the responsive T cell lines was re-stimulated with 10 μg/mL of its specific peptide while the other well was mock stimulated with 0.1% (v/v) DMSO. As positive control, one well of the DMSO-stimulated T cell line was activated by treatment with 20 ng/ml Phorbol 12-myristate 13-acetate and 1 μM lonomycin. Then, 1:10 diluted GolgiStop (containing monensin) and 1:15 diluted GolgiPlug (containing brefeldin A) were added to all wells to inhibit intracellular transport processes. Monensin inhibits the trans-Golgi transport, while brefeldin A inhibits transport between the ER and the Golgi (Chardin and McCormick, 1999; Mollenhauer et al., 1990). The stimulated cells were incubated for 5 h at standard culture conditions.
# After incubation, the cells were resuspended, centrifuged at 400×g for 5 min and the supernatant was discarded. Then, the cells were resuspended in 50 μL cold staining buffer (unstained) or 50 μL cold staining buffer containing the phenotyping antibodies against CD3, CD4, CD8 and the LIVE/DEAD™ Fixable Near-IR Dead Cell Stain (unstimulated and stimulated) and incubated at 4° C. for 30 min. After the surface staining, the cells were washed twice with 200 μL staining buffer and centrifugation at 1400 rpm, followed by fixation with 1% paraformaldehyde (PFA) solution for 15 min at 4° C. All following centrifugation steps were carried out at 1400 rpm for 5 min. After fixation, the cells were again washed twice with 200 μL cold staining buffer and were then resuspended in 100 μL 1× perm/wash buffer diluted in PBS (provided is 10×) for 15 min at 4° C. for cell membrane permeabilization. Subsequently, the plate was centrifuged and the supernatant was discarded. The cells were resuspended in 50 μL perm/wash buffer diluted in PBS (unstained) or 50 μL perm/wash buffer containing the intracellular cytokine antibodies against IFNγ, TNFα and granzyme B (unstimulated and stimulated) for 30 min at 4° C. After intracellular cytokine staining, the cells were washed twice with 200 μL 1× perm/wash buffer. Then 100 μL fix/perm solution (provided in the BD Cytofix/Cytoperm kit) were added per well. After 20 min of incubation at 4° C., the cells of each well were washed twice with 200 μL 1× perm/wash buffer before being resuspended in 100 μL staining buffer and stored at 4° C. overnight.
# OneComp eBeads™ (eBeads) and ArC™ Amine Reactive Compensation beads (ArC beads) were stained as compensation controls. For each antibody, 50 μL of the eBeads suspension were stained with the same dilution as used for staining the cells. The ArC beads were stained with 1 μL LIVE/DEAD™ Fixable Near-IR Dead Cell Stain stock solution in 50 μL staining buffer. The beads were incubated at 4° C. for 30 min and were then washed two times with 1 mL staining buffer and centrifugation at 400×g. Finally, the stained beads were resuspended in 400 μL staining buffer, one drop of ArC™ negative beads was added to the labelled ArC beads, and all beads were stored at 4° C. overnight.
# On the next day, the samples and the single stained compensation controls were acquired at a BD FACS Canto™ II analyzer using the BD FACS Diva Software Version 6. […]
row,Substance,"cytokine: Immunogenicity of the peptide shown by intracellular cytokine staining (IFN-gamma, TNF-alpha)"
1,43 (LLMGTLGIVC; Human papillomavirus 16) [compound 43],+

# Same assay, conditions: HLA restriction B15
row,Substance,"cytokine: Immunogenicity of the peptide shown by intracellular cytokine staining (IFN-gamma, TNF-alpha)"
1,116 (LCIVYRDGNPY; Human papillomavirus 16) [compound 116],+
2,110 (GQAEPDRAHY; Human papillomavirus 16) [compound 110],+

# Tested on: short-term antigen-specific T cell lines generated from PBMCs
# Assay: Interferon-γ ELISpot assay on short-term antigen-specific T cell lines
# Type: cell-based, human
# Conditions: HLA restriction A01
row,Substance,ELISpot: Immungenicity of the peptide shown by IFN-gamma ELISPOT analysis
1,9 (SEYRHYCYSLY; Human papillomavirus 16) [compound 9],+
2,133 (SEYRHYCY; Human papillomavirus 16) [compound 133],+
3,8 (SKISEYRHYCY; Human papillomavirus 16) [compound 8],+

# Same assay, conditions: HLA restriction A02
row,Substance,ELISpot: Immungenicity of the peptide shown by IFN-gamma ELISPOT analysis
1,43 (LLMGTLGIVC; Human papillomavirus 16) [compound 43],+
2,48 (ELQTTIHDI; Human papillomavirus 16) [compound 48],+
3,51 (TLHEYMLDLQP; Human papillomavirus 16) [compound 51],+

# Same assay, conditions: HLA restriction A03
row,Substance,ELISpot: Immungenicity of the peptide shown by IFN-gamma ELISPOT analysis
1,54 (TTLEQQYNK; Human papillomavirus 16) [compound 54],+
2,76 (LIRCINCQK; Human papillomavirus 16) [compound 76],+
3,72 (KFYSKISEYR; Human papillomavirus 16) [compound 72],+
4,136 (GTTLEQQYNK; Human papillomavirus 16) [compound 136],+
5,69 (AVCDKCLK; Human papillomavirus 16) [compound 69],+
6,53 (CVYCKQQLLR; Human papillomavirus 16) [compound 53],+
7,77 (RCINCQKPLCP; Human papillomavirus 16) [compound 77],+
8,78 (KQRFHNIRGR; Human papillomavirus 16) [compound 78],+
9,67 (MFQDPQERPRK; Human papillomavirus 16) [compound 67],+
10,71 (KFYSKISEY; Human papillomavirus 16) [compound 71],+

# Same assay, conditions: HLA restriction A11
row,Substance,ELISpot: Immungenicity of the peptide shown by IFN-gamma ELISPOT analysis
1,79 (LGIVCPICSQK; Human papillomavirus 16) [compound 79],+

# Same assay, conditions: HLA restriction A24
row,Substance,ELISpot: Immungenicity of the peptide shown by IFN-gamma ELISPOT analysis
1,94 (HLDKKQRFHNI; Human papillomavirus 16) [compound 94],+
2,93 (YSLYGTTL; Human papillomavirus 16) [compound 93],+
3,96 (AHYNIVTF; Human papillomavirus 16) [compound 96],+
4,71 (KFYSKISEY; Human papillomavirus 16) [compound 71],+

# Same assay, conditions: HLA restriction B07
row,Substance,ELISpot: Immungenicity of the peptide shown by IFN-gamma ELISPOT analysis
1,143 (LPQLCTELQT; Human papillomavirus 16) [compound 143],+
2,104 (RPRKLPQLCT; Human papillomavirus 16) [compound 104],+
3,105 (KPLCDLLI; Human papillomavirus 16) [compound 105],+

# Same assay, conditions: HLA restriction B15
row,Substance,ELISpot: Immungenicity of the peptide shown by IFN-gamma ELISPOT analysis
1,116 (LCIVYRDGNPY; Human papillomavirus 16) [compound 116],+
2,110 (GQAEPDRAHY; Human papillomavirus 16) [compound 110],+
3,119 (LRREVYDFAF; Human papillomavirus 16) [compound 119],+
4,126 (SEYRHYCY; Human papillomavirus 16) [compound 126],+
5,131 (GQAEPDRAH; Human papillomavirus 16) [compound 131],+
6,146 (RGRWTGRCM; Human papillomavirus 16) [compound 146],+
7,121 (AVCDKCLKF; Human papillomavirus 16) [compound 121],+
8,9 (SEYRHYCYSLY; Human papillomavirus 16) [compound 9],+
9,125 (SKISEYRHY; Human papillomavirus 16) [compound 125],+
10,127 (QQYNKPLCDL; Human papillomavirus 16) [compound 127],+
11,129 (KQRHLDKKQRF; Human papillomavirus 16) [compound 129],+
12,120 (IVYRDGNPYAV; Human papillomavirus 16) [compound 120],+
13,147 (AGQAEPDRAHY; Human papillomavirus 16) [compound 147],+
14,128 (CQKPLCPEE; Human papillomavirus 16) [compound 128],+
15,124 (YSKISEYRHY; Human papillomavirus 16) [compound 124],+

# Same assay, conditions: comparison among the peptides in Table 1
row,Substance,"rates of immunoactivation in PBMC samples, CD8 T cell responses and/or numbers of HPV16 positive cell lines presenting the peptide as HLA-complexes"
1,54 (TTLEQQYNK; Human papillomavirus 16) [compound 54],"highest rates of immunoactivation in PBMC samples, to induce the strongest CD8 T cell responses, and/or shown to be presented as HLA-complexes by the highest numbers of HPV16 positive cell lines"
2,98 (TPTLHEYML; Human papillomavirus 16) [compound 98],"highest rates of immunoactivation in PBMC samples, to induce the strongest CD8 T cell responses, and/or shown to be presented as HLA-complexes by the highest numbers of HPV16 positive cell lines"
3,1 (ISEYRHYCY; Human papillomavirus 16) [compound 1],"highest rates of immunoactivation in PBMC samples, to induce the strongest CD8 T cell responses, and/or shown to be presented as HLA-complexes by the highest numbers of HPV16 positive cell lines"
4,53 (CVYCKQQLLR; Human papillomavirus 16) [compound 53],"highest rates of immunoactivation in PBMC samples, to induce the strongest CD8 T cell responses, and/or shown to be presented as HLA-complexes by the highest numbers of HPV16 positive cell lines"
5,80 (VYCKQQLL; Human papillomavirus 16) [compound 80],"highest rates of immunoactivation in PBMC samples, to induce the strongest CD8 T cell responses, and/or shown to be presented as HLA-complexes by the highest numbers of HPV16 positive cell lines"
6,18 (RTLEDLLMGT; Human papillomavirus 16) [compound 18],"highest rates of immunoactivation in PBMC samples, to induce the strongest CD8 T cell responses, and/or shown to be presented as HLA-complexes by the highest numbers of HPV16 positive cell lines"
7,2 (HGDTPTLHEY; Human papillomavirus 16) [compound 2],"highest rates of immunoactivation in PBMC samples, to induce the strongest CD8 T cell responses, and/or shown to be presented as HLA-complexes by the highest numbers of HPV16 positive cell lines"
